Values quoted from earlier work in PMC3902791 (Molecular imaging and biology : MIB : the official …, 2012).
Where two headings read alike, the source gives them in different places.

Key:
[1] = humans; cited from earlier work
dog = conditions: cited from earlier work
monkey = conditions: intravenous injection; cited from earlier work

| SMILES | effective dose [1] | radiation absorbed dose, intestines [1] | radiation absorbed dose, kidneys [1] | radiation absorbed dose, liver [1] | radiation absorbed dose, pancreas [1] | radiation absorbed dose, urinary bladder [1] | LD50 (dog; intravenously) | LD50 (dog; orally) | LD50 (monkey) |
| --- | --- | --- | --- | --- | --- | --- | --- | --- | --- |
| C[11C](=O)O [^11C-ACE, ^11C-labeled acetate] | 0.0049 mSv/MBq | 0.01–0.011 mGy/MBq | 0.0093 mGy/MBq | 0.006 mGy/MBq | 0.017 mGy/MBq | 0.0028 mGy/MBq | – | – | – |
| O=C([O-])CF.[Na+] [sodium fluoroacetate] | – | – | – | – | – | – | 0.06 mg/kg | 0.066 mg/kg | 5 mg/kg |
